Measured values from patent US12006328B2, “Thieno[2,3-d]pyrimidin-4-one derivatives as NMDAR modulators and uses related thereto” (Emory University, priority 2014, dated 2024).

What was measured:
Assay type in all cases: cell-based
[1] = target: GluN2B-containing NMDA receptors (Homo sapiens, UniProt Q13224); assay: Two-electrode voltage-clamp recordings from Xenopus laevis oocytes, GluN2B; conditions: for I10 μM/ICONTROL (mean ± SEM, %) Glu N2B: 10 μM test compound with glutamate 100 μM and glycine 30 μM, Tables 1-5; for I10 μM/ICONTROL (mean ± SEM, %) Glu N2B / maximal potentiation Glu N2B: percent of response without compound; for EC50 / maximal potentiation Glu N2B: Table 1; for EC50: glutamate 100 μM, glycine 30 μM, Hill fit, read-out: EC50 Glu N2B; for maximal potentiation Glu N2B: in brackets after EC50
GluN2B-containing NMDA receptors, sequence (Q13224 27-1484, other chains not shown): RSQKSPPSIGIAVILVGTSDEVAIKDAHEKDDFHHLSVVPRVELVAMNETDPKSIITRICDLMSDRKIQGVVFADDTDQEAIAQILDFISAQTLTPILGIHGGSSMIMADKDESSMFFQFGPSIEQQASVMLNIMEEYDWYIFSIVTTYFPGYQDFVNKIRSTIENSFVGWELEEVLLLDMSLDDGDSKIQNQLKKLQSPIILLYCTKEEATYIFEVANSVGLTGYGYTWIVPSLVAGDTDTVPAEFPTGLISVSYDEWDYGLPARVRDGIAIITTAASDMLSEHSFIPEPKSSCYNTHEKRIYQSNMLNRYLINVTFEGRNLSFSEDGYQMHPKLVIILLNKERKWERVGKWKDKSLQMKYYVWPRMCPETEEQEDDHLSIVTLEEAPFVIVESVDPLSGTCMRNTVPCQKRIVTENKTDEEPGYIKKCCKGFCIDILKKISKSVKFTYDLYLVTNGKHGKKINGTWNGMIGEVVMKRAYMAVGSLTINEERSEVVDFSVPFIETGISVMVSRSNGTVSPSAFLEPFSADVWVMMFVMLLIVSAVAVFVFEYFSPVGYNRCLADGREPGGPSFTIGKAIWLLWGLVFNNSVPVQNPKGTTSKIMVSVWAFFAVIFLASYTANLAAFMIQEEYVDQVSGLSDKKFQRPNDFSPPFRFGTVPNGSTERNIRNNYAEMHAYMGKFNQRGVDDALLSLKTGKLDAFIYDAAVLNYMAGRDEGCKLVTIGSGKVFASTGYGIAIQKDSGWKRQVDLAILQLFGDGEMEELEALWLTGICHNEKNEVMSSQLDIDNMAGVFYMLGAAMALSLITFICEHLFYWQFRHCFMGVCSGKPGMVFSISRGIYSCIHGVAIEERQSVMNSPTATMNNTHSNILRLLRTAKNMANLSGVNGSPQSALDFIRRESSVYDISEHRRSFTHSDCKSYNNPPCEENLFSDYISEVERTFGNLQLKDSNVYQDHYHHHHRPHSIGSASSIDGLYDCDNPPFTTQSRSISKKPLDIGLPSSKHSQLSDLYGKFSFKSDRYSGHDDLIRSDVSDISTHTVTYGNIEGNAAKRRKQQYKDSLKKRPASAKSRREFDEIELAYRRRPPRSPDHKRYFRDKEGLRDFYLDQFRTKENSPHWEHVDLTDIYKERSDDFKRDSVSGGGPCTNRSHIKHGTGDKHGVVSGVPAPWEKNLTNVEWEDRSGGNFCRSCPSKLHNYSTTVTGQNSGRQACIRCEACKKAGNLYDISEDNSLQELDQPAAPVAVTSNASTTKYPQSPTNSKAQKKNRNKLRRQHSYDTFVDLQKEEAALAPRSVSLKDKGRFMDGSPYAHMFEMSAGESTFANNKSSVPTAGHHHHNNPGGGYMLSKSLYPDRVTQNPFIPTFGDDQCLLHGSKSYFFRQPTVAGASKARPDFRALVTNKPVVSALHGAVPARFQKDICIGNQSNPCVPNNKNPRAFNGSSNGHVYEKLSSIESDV
Protocol: (§1) Xenopus laevis oocytes were injected with cRNA encoding the NMDA receptor subunits. Two to seven days after injection, two-electrode voltage-clamp recordings were performed. Extracellular solutions were made from a solutions containing (in mM) 90 NaCl, 3 KCl, 10 HEPES, 0.5 BaCl2, 0.01 EDTA (pH 7.4 with NaOH). Voltage and current electrodes were filled with 0.3 M and 3.0 M KCl, respectively.
(§2) Potency was determined by adding increasing concentrations of test compound to saturating concentrations of glutamate (100 μM) and glycine (30 μM), and the response amplitude measured. The response in the presence of each concentration of test compound plus agonists was expressed as a percent of the response in the absence of test compound.

[2] = target: GluN2C-containing NMDA receptors (Homo sapiens, UniProt Q14957); assay: Two-electrode voltage-clamp recordings from Xenopus laevis oocytes, GluN2C; conditions: for I10 μM/ICONTROL (mean ± SEM, %) Glu N2C: 10 μM test compound with glutamate 100 μM and glycine 30 μM, Tables 1-5; for I10 μM/ICONTROL (mean ± SEM, %) Glu N2C / maximal potentiation Glu N2C: percent of response without compound; for EC50 / maximal potentiation Glu N2C: Table 1; for EC50: glutamate 100 μM, glycine 30 μM, Hill fit, read-out: EC50 Glu N2C; for maximal potentiation Glu N2C: in brackets after EC50
GluN2C-containing NMDA receptors, sequence (Q14957 20-1233, other chains not shown): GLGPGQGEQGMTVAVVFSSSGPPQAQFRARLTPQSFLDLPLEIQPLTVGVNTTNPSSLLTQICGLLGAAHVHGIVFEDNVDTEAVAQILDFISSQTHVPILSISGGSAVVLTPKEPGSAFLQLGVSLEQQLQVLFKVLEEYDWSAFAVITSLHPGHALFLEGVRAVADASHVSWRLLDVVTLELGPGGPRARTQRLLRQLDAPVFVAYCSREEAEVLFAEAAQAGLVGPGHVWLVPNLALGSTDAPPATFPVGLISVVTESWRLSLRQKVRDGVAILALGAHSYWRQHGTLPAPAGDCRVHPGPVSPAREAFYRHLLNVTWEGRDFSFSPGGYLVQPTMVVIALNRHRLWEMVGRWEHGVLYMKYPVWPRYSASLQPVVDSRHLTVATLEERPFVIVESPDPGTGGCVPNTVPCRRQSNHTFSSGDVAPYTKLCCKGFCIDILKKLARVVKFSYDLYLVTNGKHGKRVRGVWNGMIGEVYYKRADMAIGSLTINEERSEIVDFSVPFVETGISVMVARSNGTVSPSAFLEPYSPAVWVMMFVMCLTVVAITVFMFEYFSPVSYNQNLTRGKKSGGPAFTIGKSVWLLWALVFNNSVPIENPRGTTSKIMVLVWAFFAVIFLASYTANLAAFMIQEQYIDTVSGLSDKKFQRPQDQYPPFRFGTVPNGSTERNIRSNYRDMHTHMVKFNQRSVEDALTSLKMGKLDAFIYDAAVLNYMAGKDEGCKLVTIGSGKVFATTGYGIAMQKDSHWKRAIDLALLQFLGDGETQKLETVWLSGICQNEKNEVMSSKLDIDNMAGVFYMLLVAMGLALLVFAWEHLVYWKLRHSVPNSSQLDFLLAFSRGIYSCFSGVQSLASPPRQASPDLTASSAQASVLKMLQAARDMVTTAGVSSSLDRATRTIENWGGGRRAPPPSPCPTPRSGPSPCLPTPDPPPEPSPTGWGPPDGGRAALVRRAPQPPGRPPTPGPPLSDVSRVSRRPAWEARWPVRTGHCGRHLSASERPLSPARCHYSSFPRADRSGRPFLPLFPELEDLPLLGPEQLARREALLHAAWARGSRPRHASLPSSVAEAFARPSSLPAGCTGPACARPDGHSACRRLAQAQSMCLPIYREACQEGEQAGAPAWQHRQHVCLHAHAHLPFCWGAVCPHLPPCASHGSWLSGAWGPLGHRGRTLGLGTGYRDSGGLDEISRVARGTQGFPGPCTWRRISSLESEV
Protocol: as §1, §2

[3] = target: GluN2D-containing NMDA receptors (Homo sapiens, UniProt O15399); assay: Two-electrode voltage-clamp recordings from Xenopus laevis oocytes, GluN2D; conditions: for I10 μM/ICONTROL (mean ± SEM, %) Glu N2D: 10 μM test compound with glutamate 100 μM and glycine 30 μM, Tables 1-5; for I10 μM/ICONTROL (mean ± SEM, %) Glu N2D / maximal potentiation Glu N2D: percent of response without compound; for EC50 / maximal potentiation Glu N2D: Table 1; for EC50: glutamate 100 μM, glycine 30 μM, Hill fit, read-out: EC50 Glu N2D; for maximal potentiation Glu N2D: in brackets after EC50
GluN2D-containing NMDA receptors, sequence (O15399 28-1336, other chains not shown): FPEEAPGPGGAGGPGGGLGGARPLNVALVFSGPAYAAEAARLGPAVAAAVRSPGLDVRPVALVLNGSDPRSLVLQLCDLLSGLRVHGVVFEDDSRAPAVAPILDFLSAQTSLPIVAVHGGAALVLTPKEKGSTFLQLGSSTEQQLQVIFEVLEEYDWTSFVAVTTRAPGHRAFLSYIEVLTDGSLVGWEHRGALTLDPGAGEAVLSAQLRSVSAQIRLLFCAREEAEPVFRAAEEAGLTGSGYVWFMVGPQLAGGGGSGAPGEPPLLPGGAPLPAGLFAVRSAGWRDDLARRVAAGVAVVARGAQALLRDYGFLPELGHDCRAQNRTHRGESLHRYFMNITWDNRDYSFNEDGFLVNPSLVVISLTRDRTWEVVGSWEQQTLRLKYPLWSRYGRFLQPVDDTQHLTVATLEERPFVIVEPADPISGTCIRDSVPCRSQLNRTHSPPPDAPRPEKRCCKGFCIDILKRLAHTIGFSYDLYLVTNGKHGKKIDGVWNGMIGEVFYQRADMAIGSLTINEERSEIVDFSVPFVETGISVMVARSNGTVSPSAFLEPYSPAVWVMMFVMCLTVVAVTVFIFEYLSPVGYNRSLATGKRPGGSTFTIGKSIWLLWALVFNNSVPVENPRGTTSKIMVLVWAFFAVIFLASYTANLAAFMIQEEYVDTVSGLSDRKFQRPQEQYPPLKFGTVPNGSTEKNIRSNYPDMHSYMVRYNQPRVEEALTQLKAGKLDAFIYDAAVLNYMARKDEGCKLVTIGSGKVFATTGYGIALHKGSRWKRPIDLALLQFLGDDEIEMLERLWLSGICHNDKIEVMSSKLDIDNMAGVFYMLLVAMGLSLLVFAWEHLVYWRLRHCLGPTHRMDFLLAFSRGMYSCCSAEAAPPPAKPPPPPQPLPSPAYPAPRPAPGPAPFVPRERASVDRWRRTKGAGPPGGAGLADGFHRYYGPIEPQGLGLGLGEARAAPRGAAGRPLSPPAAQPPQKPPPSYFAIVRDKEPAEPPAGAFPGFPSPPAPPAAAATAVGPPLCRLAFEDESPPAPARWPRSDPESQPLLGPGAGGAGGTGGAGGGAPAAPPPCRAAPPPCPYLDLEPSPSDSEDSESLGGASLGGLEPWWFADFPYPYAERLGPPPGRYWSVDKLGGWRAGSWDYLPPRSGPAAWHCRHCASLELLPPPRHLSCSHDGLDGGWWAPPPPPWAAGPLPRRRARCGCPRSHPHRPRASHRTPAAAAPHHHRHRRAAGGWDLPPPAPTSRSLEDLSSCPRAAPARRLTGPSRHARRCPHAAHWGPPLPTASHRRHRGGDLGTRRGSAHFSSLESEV
Protocol: as §1, §2

| SMILES | I10 μM/ICONTROL (mean ± SEM, %) Glu N2B [1] [%] | I10 μM/ICONTROL (mean ± SEM, %) Glu N2C [2] [%] | I10 μM/ICONTROL (mean ± SEM, %) Glu N2D [3] [%] | EC50 [1] [µM] | maximal potentiation Glu N2B [1] [%] | EC50 [2] [µM] | maximal potentiation Glu N2C [2] [%] | EC50 [3] [µM] | maximal potentiation Glu N2D [3] [%] |
| --- | --- | --- | --- | --- | --- | --- | --- | --- | --- |
| COc1ccc(C(=O)Cn2cnc3sc4c(c3c2=O)CCCC4)c(OC)c1 [2,4-OMe] | 95 ± 1.8 | 94 ± 1.4 | 90 ± 0.7 |  |  |  |  |  |  |
| Cc1sc2ncn(CC(=O)N3CCCC3)c(=O)c2c1-c1ccccc1C(F)(F)F [2-CF3—Ph / Me] | 93 ± 2.0 | 95 ± 2.1 | 94 ± 1.4 |  |  |  |  |  |  |
| Cc1sc2ncn(CC(=O)N3CCCC3)c(=O)c2c1-c1ccc2c(c1)CCC2 [3,4-(CH2)3—Ph / Me] | 176 ± 6.2 | 185 ± 11.4 | 165 ± 3.4 | 11.5 | 275 | 26 | 475 | 48 | 580 |
| Cc1sc2ncn(CC(=O)N3CCCC3)c(=O)c2c1-c1ccc(Br)c(Br)c1 [3,4-Br—Ph / Me] | 188 ± 9.3 | 281 ± 17.7 | 292 ± 13.7 | 5.2 | 223 | 13 | 561 | 30 | 1205 |
| Cc1ccc(-c2c(C)sc3ncn(CC(=O)N4CCCC4)c(=O)c23)cc1C [3,4-Me—Ph / Me] |  |  |  | 7.9 | 192 | 27 | 267 | 18 | 229 |
| Cc1sc2ncn(CC(=O)N3CCCC3)c(=O)c2c1-c1cc(C(F)(F)F)cc(C(F)(F)F)c1 [3,5-CF3—Ph / Me] | 101 ± 4.5 | 115 ± 5.5 | 103 ± 1.1 |  |  |  |  |  |  |
| Cc1sc2ncn(CC(=O)N3CCCC3)c(=O)c2c1-c1cc(I)cc(I)c1 [3,5-I—Ph / Me] | 152 ± 8.8 | 167 ± 9.6 | 151 ± 6.3 | 20 | 259 | 35 | 493 | 32 | 432 |
| Cc1sc2ncn(CC(=O)N3CCCC3)c(=O)c2c1-c1cccc(Br)c1 [3-Br—Ph / Me] | 172 ± 8.7 | 241 ± 19.7 | 239 ± 11.5 | 11 | 266 | 17 | 568 | 21 | 687 |
| Cc1sc2ncn(CC(=O)N3CCCC3)c(=O)c2c1-c1cccc(C(F)(F)F)c1 [3-CF3—Ph / Me] | 211 ± 11.3 | 368 ± 29.0 | 480 ± 74.3 | 6 | 282 | 13 | 748 | 25 | 1735 |
| Cc1sc2ncn(CC(=O)N3CCCC3)c(=O)c2c1-c1cccc(C#N)c1 [3-CN—Ph / Me] | 147 ± 4.1 | 190 ± 4.2 | 177 ± 6.2 |  |  |  |  |  |  |
| Cc1sc2ncn(CC(=O)N3CCCC3)c(=O)c2c1-c1cccc(Cl)c1 [3-Cl—Ph / Me] | 170 ± 4.7 | 211 ± 14.7 | 190 ± 6.3 | 16 | 301 | 36 | 877 | 37 | 830 |
| Cc1sc2ncn(CC(=O)N3CCCC3)c(=O)c2c1-c1cccc(I)c1 [3-I—Ph / Me] | 246 ± 14.9 | 401 ± 36.4 | 364 ± 31.6 | 3.7 | 249 | 7.6 | 622 | 15 | 1068 |
| Cc1sc2ncn(CC(=O)N3CCCC3)c(=O)c2c1-c1cccc(-n2ccnc2)c1 [3-N-imidazolyl-Ph / Me] | 120 ± 5.8 | 112 ± 1.3 | 99 ± 3.4 | 102 | 261 | 191 | 453 | 80 | 207 |

The remaining molecules from weak to strong by EC50 [1], led by results:

| I10 μM/ICONTROL (mean ± SEM, %) Glu N2B [1] [%] | I10 μM/ICONTROL (mean ± SEM, %) Glu N2C [2] [%] | I10 μM/ICONTROL (mean ± SEM, %) Glu N2D [3] [%] | EC50 [1] [µM] | maximal potentiation Glu N2B [1] [%] | EC50 [2] [µM] | maximal potentiation Glu N2C [2] [%] | EC50 [3] [µM] | maximal potentiation Glu N2D [3] [%] | SMILES |
| --- | --- | --- | --- | --- | --- | --- | --- | --- | --- |
| 110 ± 2.6 | 113 ± 5.8 | 108 ± 6.2 | 293 | 402 | 44 | 308 | 108 | 239 | Cc1sc2ncn(CC(=O)N3CCCC3)c(=O)c2c1-c1cccc(-n2cncn2)c1 [3-1,2,4 triazolyl-Ph / Me] |
| 107 ± 2.7 | 114 ± 0.9 | 116 ± 4.4 | 96 | 229 | 132 | 458 | 204 | 748 | Cc1sc2ncn(CC(=O)N3CCCC3)c(=O)c2c1-c1cc(F)cc(F)c1 [3,5-F—Ph / Me] |
| 176 ± 8.1 | 264 ± 17.7 | 175 ± 9.4 | 23.8 | 295 | 10 | 613 | 10 | 592 | Cc1sc2ncn(CC(=O)N3CCCC3)c(=O)c2c1-c1cccc(N=[N+]=[N-])c1 [3-N3—Ph / Me] |
| 185 ± 4.8 | 321 ± 13.6 | 253 ± 13.3 | 12 | 304 | 36 | 1483 | 60 | 1860 | Cc1sc2ncn(CC(=O)N3CCCC3)c(=O)c2c1-c1cccc([N+](=O)[O-])c1 [3-NO2—Ph / Me] |
| 118 ± 5.2 | 135 ± 5.4 | 131 ± 3.7 | 11 | 147 | 35 | 392 | 25 | 291 | Cc1sc2ncn(CC(=O)N3CCCC3)c(=O)c2c1-c1ccc(OCc2ccccc2)cc1 [4-BnO—Ph / Me] |
| 156 ± 5.2 | 195 ± 6.9 | 230 ± 13.5 | 1.08 | 143 | 2.2 | 195 | 3.86 | 202 | Cc1sc2ncn(CC(=O)N3CCCC3)c(=O)c2c1-c1cc(Br)cc(Br)c1 [3,5-Br—Ph / Me] |
